Reference: patent publication US9980943B2, “Methods of treating muscular dystrophy” (BOARD OF REGENTS OF THE NEVADA SYSTEM OF HIGHER EDUCATION, …, priority 2013, dated 2018)

Assays:
Format in all cases: cell-based, mouse
[1] = system: α7 integrin (LacZ reporter in α7βgal+/− myoblasts); assay: Myoblast α7+/LacZ integrin FDG assay (Burkin assay in myoblasts, 96-well); conditions: 96-well; for Burkin Assay in Myoblasts, signal relative to DMSO: α7+/LacZ myoblasts; for Burkin Assay in Myoblasts, value relative to DMSO: SU9516 analogs, N=3-6
[2] = system: α7 integrin (LacZ reporter in α7+/LacZ myotubes); assay: Myotube α7 integrin FDG assay (Burkin assay in myotubes, 96-well); conditions: for Burkin Assay in Myotubes, value relative to DMSO: SU9516 analogs, 96-well, N=3-6
[3] = system: β-galactosidase in CMV-LacZ C2C12 myoblasts; assay: CMV-LacZ secondary screen in C2C12 myoblasts (β-Gal stabilizing assay); conditions: for CMV-LACZ in Myoblasts (β-galactosidase activity relative to DMSO): CMV-LacZ C2C12 myoblasts; for CMV-LACZ in Myoblasts, value relative to DMSO: SU9516 analogs, C2C12 CMV-LacZ, N=2
Outline: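 First, C2C12 myoblasts were transfected with a linearized CMV-LACZ vector and clonal lines selected by FDG β-gal assay. Then cells were exposed to compounds at 0.5, 1, 5, 10, 20 and 40 μM in 96-well format, two replicates each, and β-gal measured.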

[4] = system: β-galactosidase in CMV-LacZ C2C12 myotubes; assay: CMV-LacZ secondary screen in C2C12 myotubes (β-Gal stabilizing assay); conditions: for CMV-LACZ in Myotubes, signal relative to DMSO: C2C12 CMV-LacZ myotubes, fold relative to DMSO; for CMV-LACZ in Myotubes, value relative to DMSO: SU9516 analogs, C2C12 CMV-LacZ, N=2
Outline: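 Stable CMV-LacZ C2C12 clone; six-point curve 0.5–40 μM; duplicates.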

CCOC(=O)C1(Cc2cccc(Cl)c2)CCCN(C(=O)CCSC)C1 (stereo not drawn) [MLS001000299-01]
Burkin Assay in Myoblasts, signal relative to DMSO ([1]; 0.5 uM): 1.089
Burkin Assay in Myoblasts, signal relative to DMSO ([1]; 1 uM): 0.9953
Burkin Assay in Myoblasts, signal relative to DMSO ([1]; 5 uM): 0.9552
Burkin Assay in Myoblasts, signal relative to DMSO ([1]; 10 uM): 0.975
Burkin Assay in Myoblasts, signal relative to DMSO ([1]; 20 uM): 0.9397
Burkin Assay in Myoblasts, signal relative to DMSO ([1]; 40 uM): 0.7738
Burkin Assay in Myotubes, α7 integrin LacZ reporter signal relative to DMSO ([2]; 0.5 uM): 0.9225
Burkin Assay in Myotubes, α7 integrin LacZ reporter signal relative to DMSO ([2]; 1 uM): 1.006
Burkin Assay in Myotubes, α7 integrin LacZ reporter signal relative to DMSO ([2]; 5 uM): 0.8764
Burkin Assay in Myotubes, α7 integrin LacZ reporter signal relative to DMSO ([2]; 10 uM): 0.9163
Burkin Assay in Myotubes, α7 integrin LacZ reporter signal relative to DMSO ([2]; 20 uM): 0.793
Burkin Assay in Myotubes, α7 integrin LacZ reporter signal relative to DMSO ([2]; 40 uM): 0.5578
CMV-LACZ in Myoblasts (β-galactosidase activity relative to DMSO) ([3]; 0.5 uM): 1.4188
CMV-LACZ in Myoblasts (β-galactosidase activity relative to DMSO) ([3]; 1 uM): 1.2745
CMV-LACZ in Myoblasts (β-galactosidase activity relative to DMSO) ([3]; 5 uM): 0.9901
CMV-LACZ in Myoblasts (β-galactosidase activity relative to DMSO) ([3]; 10 uM): 0.8248
CMV-LACZ in Myoblasts (β-galactosidase activity relative to DMSO) ([3]; 20 uM): 1.1522
CMV-LACZ in Myoblasts (β-galactosidase activity relative to DMSO) ([3]; 40 uM): 1.0107
CMV-LACZ in Myotubes, signal relative to DMSO ([4]; 0.5 uM): 0.6411
CMV-LACZ in Myotubes, signal relative to DMSO ([4]; 1 uM): 1.3158
CMV-LACZ in Myotubes, signal relative to DMSO ([4]; 5 uM): 1.0658
CMV-LACZ in Myotubes, signal relative to DMSO ([4]; 10 uM): 0.9029
CMV-LACZ in Myotubes, signal relative to DMSO ([4]; 20 uM): 0.9544
CMV-LACZ in Myotubes, signal relative to DMSO ([4]; 40 uM): 1.0744

COc1ccc2c(c1)/C(=C\c1cccc(/C=C3/C(=O)Nc4ccc(OC)cc43)n1)C(=O)N2 [MLS002702497-01]
Burkin Assay in Myoblasts, value relative to DMSO ([1]; 0.5 uM): 0.7804
Burkin Assay in Myoblasts, value relative to DMSO ([1]; 1 uM): 0.5545
Burkin Assay in Myoblasts, value relative to DMSO ([1]; 5 uM): 0.175
Burkin Assay in Myoblasts, value relative to DMSO ([1]; 10 uM): 0.1888
Burkin Assay in Myoblasts, value relative to DMSO ([1]; 20 uM): 0.05588
Burkin Assay in Myoblasts, value relative to DMSO ([1]; 40 uM): 0.04886
Burkin Assay in Myotubes, value relative to DMSO ([2]; 0.5 uM): 0.8414
Burkin Assay in Myotubes, value relative to DMSO ([2]; 1 uM): 0.749
Burkin Assay in Myotubes, value relative to DMSO ([2]; 5 uM): 0.7692
Burkin Assay in Myotubes, value relative to DMSO ([2]; 10 uM): 0.7814
Burkin Assay in Myotubes, value relative to DMSO ([2]; 20 uM): 0.4567
Burkin Assay in Myotubes, value relative to DMSO ([2]; 40 uM): 0.3839
CMV-LACZ in Myoblasts, value relative to DMSO ([3]; 0.5 uM): 0.8643
CMV-LACZ in Myoblasts, value relative to DMSO ([3]; 1 uM): 1.0213
CMV-LACZ in Myoblasts, value relative to DMSO ([3]; 5 uM): 2.6344
CMV-LACZ in Myoblasts, value relative to DMSO ([3]; 10 uM): 3.6076
CMV-LACZ in Myoblasts, value relative to DMSO ([3]; 20 uM): 0.2593
CMV-LACZ in Myoblasts, value relative to DMSO ([3]; 40 uM): 0.2779
CMV-LACZ in Myotubes, value relative to DMSO ([4]; 0.5 uM): 1.1181
CMV-LACZ in Myotubes, value relative to DMSO ([4]; 1 uM): 2.2829
CMV-LACZ in Myotubes, value relative to DMSO ([4]; 5 uM): 7.0726
CMV-LACZ in Myotubes, value relative to DMSO ([4]; 10 uM): 6.3598
CMV-LACZ in Myotubes, value relative to DMSO ([4]; 20 uM): 0.6520
CMV-LACZ in Myotubes, value relative to DMSO ([4]; 40 uM): 0.6550

CCN(C(=O)c1ccc(S(=O)(=O)N(C)C)cc1)C(C)C(=O)Nc1ccc(C)cc1 (stereo not drawn) [MLS001170856-01]
Burkin Assay in Myoblasts, signal relative to DMSO ([1]; 0.5 uM): 0.95
Burkin Assay in Myoblasts, signal relative to DMSO ([1]; 1 uM): 0.8651
Burkin Assay in Myoblasts, signal relative to DMSO ([1]; 5 uM): 0.9744
Burkin Assay in Myoblasts, signal relative to DMSO ([1]; 10 uM): 1.244
Burkin Assay in Myoblasts, signal relative to DMSO ([1]; 20 uM): 0.9217
Burkin Assay in Myoblasts, signal relative to DMSO ([1]; 40 uM): 0.7133
Burkin Assay in Myotubes, α7 integrin LacZ reporter signal relative to DMSO ([2]; 0.5 uM): 0.8296
Burkin Assay in Myotubes, α7 integrin LacZ reporter signal relative to DMSO ([2]; 1 uM): 0.7436
Burkin Assay in Myotubes, α7 integrin LacZ reporter signal relative to DMSO ([2]; 5 uM): 0.91
Burkin Assay in Myotubes, α7 integrin LacZ reporter signal relative to DMSO ([2]; 10 uM): 1.064
Burkin Assay in Myotubes, α7 integrin LacZ reporter signal relative to DMSO ([2]; 20 uM): 0.7763
Burkin Assay in Myotubes, α7 integrin LacZ reporter signal relative to DMSO ([2]; 40 uM): 1.029
CMV-LACZ in Myoblasts (β-galactosidase activity relative to DMSO) ([3]; 0.5 uM): 0.7337
CMV-LACZ in Myoblasts (β-galactosidase activity relative to DMSO) ([3]; 1 uM): 0.9857
CMV-LACZ in Myoblasts (β-galactosidase activity relative to DMSO) ([3]; 5 uM): 0.7938
CMV-LACZ in Myoblasts (β-galactosidase activity relative to DMSO) ([3]; 10 uM): 1.0004
CMV-LACZ in Myoblasts (β-galactosidase activity relative to DMSO) ([3]; 20 uM): 0.8881
CMV-LACZ in Myoblasts (β-galactosidase activity relative to DMSO) ([3]; 40 uM): 0.8389
CMV-LACZ in Myotubes, signal relative to DMSO ([4]; 0.5 uM): 1.1095
CMV-LACZ in Myotubes, signal relative to DMSO ([4]; 1 uM): 0.9105
CMV-LACZ in Myotubes, signal relative to DMSO ([4]; 5 uM): 1.0074
CMV-LACZ in Myotubes, signal relative to DMSO ([4]; 10 uM): 1.0562
CMV-LACZ in Myotubes, signal relative to DMSO ([4]; 20 uM): 1.1518
CMV-LACZ in Myotubes, signal relative to DMSO ([4]; 40 uM): 0.8753
